Test results published in patent publication US10076519B2 (CYTOKINETICS, INC., priority 2010, dated 2018).

system: rabbit skeletal myofibrils (fast skeletal myofibrils); assay: Activation of fast skeletal myofibrils (PUMA assay, PK/LDH-coupled ATPase at pCa25); type: biochemical; conditions: AC1.4 determined according to the procedure of Example 39; reported as class symbols
Outline: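 ATPase activity of Triton-washed rabbit skeletal myofibrils, roughly 90% fast fibres, tracked by NADH loss at 340 nm through a PK/LDH-coupled ADP-regenerating system. Calcium set to 25% of maximal activity (pCa25), in PIPES 12 mM pH 6.8 with 2 mM MgCl2 and 1 mM DTT; AC1.4 reported.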

Question: CC(C)(CNc1ccc(-c2ccc3[nH]nc(N)c3c2)nn1)c1cccc(CN)c1 [[6-(3-amino(1H-indazol-5-yl))pyridazin-3-yl]{2-[3-(aminomethyl)phenyl]-2-methylpropyl}amine] was tested. Which “Mean AC1.4” value did it give?
Answer: Its value is “C (C=10-20 uM)”.

Question: CC(C)(CNc1ccc(C#N)nn1)c1ccc(F)cc1 [6-{[2-(4-fluorophenyl)-2-methylpropyl]amino}pyridazine-3-carbonitrile] was tested. Which “Mean AC1.4” value did it give?
Answer: The value was “D (D=>20 uM)”.

Question: Which “Mean AC1.4” value does the source give for CC(C)(CNc1ccc(-c2ccccc2F)nn1)c1ccc(F)cc1 [[2-(4-fluorophenyl)-2-methylpropyl][6-(2-fluorophenyl)pyridazin-3-yl]amine] here?
Answer: Its value is “A (A=<1 uM)”.

Question: For C=Cc1ccc(NCC(C)(C)c2ccc(F)cc2)nn1 [N-(2-(4-fluorophenyl)-2-methylpropyl)-6-vinylpyridazin-3-amine], which “Mean AC1.4” value is on record?
Answer: Its value is “B (B=1-10 uM)”.

Question: For Nc1ccc(-c2ccc(NCC3(c4ncccc4F)CCC3)nn2)cc1 [[6-(4-aminophenyl)pyridazin-3-yl]{[(3-fluoro(2-pyridyl))cyclobutyl]methyl}amine], which “Mean AC1.4” value is on record?
Answer: The value was “A (A=<1 uM)”.

Question: Nc1ccc(-c2ccc(NCC3(c4ncccc4F)CCC3)nn2)cn1 [[6-(6-amino(3-pyridyl))pyridazin-3-yl]{[(3-fluoro(2-pyridyl))cyclobutyl]methyl}amine] was tested. Which “Mean AC1.4” value did it give?
Answer: Its value is “A (A=<1 uM)”.

Question: For c1cnc(C2(CNc3ccc(-c4ccc5cn[nH]c5c4)nn3)CCC2)cn1 [(6-(1H-indazol-6-yl)pyridazin-3-yl)[(pyrazin-2-ylcyclobutyl)methyl]amine], which “Mean AC1.4” value is on record?
Answer: The value was “C (C=10-20 uM)”.

Question: Which “Mean AC1.4” value does the source give for CC(C)(CNc1ccc(C(=O)N2CCNC(=O)C2)nn1)c1ccc(F)cc1 [4-[(6-{[2-(4-fluorophenyl)-2-methylpropyl]amino}pyridazin-3-yl)carbonyl]piperazin-2-one] here?
Answer: Its value is “D (D=>20 uM)”.

Question: How did the “Mean AC1.4” value turn out when CC(C)(CNc1ccc(C2=CCNCC2)nn1)c1ccc(F)cc1 [[2-(4-fluorophenyl)-2-methylpropyl](6-(4-1,2,5,6-tetrahydropyridyl)pyridazin-3-yl)amine] was run?
Answer: Its value is “B (B=1-10 uM)”.

Question: For CC(C)(CNc1ccc(-c2ccc(=O)[nH]c2)nn1)c1ccc(F)cc1, which “Mean AC1.4” value is on record?
Answer: The value was “B (B=1-10 uM)”.

Question: With Cn1cc(-c2ccc(NCC3(c4ncccc4F)CCC3)nn2)cn1 [{[(3-fluoro(2-pyridyl))cyclobutyl]methyl}[6-(1-methylpyrazol-4-yl)pyridazin-3-yl]amine] as the molecule, how does the “Mean AC1.4” value read?
Answer: Its value is “D (D=>20 uM)”.

Question: With COc1ccnc(C2(CNc3ccc(-c4ccc5cn[nH]c5c4)nn3)CCC2)c1 [(6-(1H-indazol-6-yl)pyridazin-3-yl){[(4-methoxy(2-pyridyl))cyclobutyl]methyl}amine] as the molecule, how does the “Mean AC1.4” value read?
Answer: The value was “A (A=<1 uM)”.

Question: With CC(C)(CNc1ccc(-c2cnc(=O)[nH]c2)nn1)c1ccc(F)cc1 as the molecule, how does the “Mean AC1.4” value read?
Answer: Its value is “D (D=>20 uM)”.

Question: How did the “Mean AC1.4” value turn out when CNc1n[nH]c2ccc(-c3ccc(NCC(C)(C)c4ccc(F)cc4)nn3)cc12 [[2-(4-fluorophenyl)-2-methylpropyl]{6-[3-(methylamino)(1H-indazol-5-yl)]pyridazin-3-yl}amine] was run?
Answer: Its value is “B (B=1-10 uM)”.

Question: For Nc1n[nH]c2ccc(-c3ccc(NCC(F)(F)c4ccc(F)cc4)nn3)cc12 [[6-(3-amino(1H-indazol-5-yl))pyridazin-3-yl][2,2-difluoro-2-(4-fluorophenyl)ethyl]amine], which “Mean AC1.4” value is on record?
Answer: The value was “B (B=1-10 uM)”.

same assay, conditions: median AC1.4 class, procedure of Example 39

Question: CC(O)(c1cnc(-c2ccc(NCC3(c4ncccc4F)CCC3)nn2)s1)C(F)(F)F (stereo not drawn) [1,1,1-trifluoro-2-{2-[6-({[(3-fluoro(2-pyridyl))cyclobutyl]methyl}ami-no)pyridazin-3-yl](1,3-thiazol-5-yl)}propan-2-ol] was tested. Which “Mean AC1.4” value did it give?
Answer: The value was “C (C=10-20 uM)”.

Question: How did the “Mean AC1.4” value turn out when O=C(O)c1cccc(-c2ccc(NC[C@]3(c4ncccc4F)C[C@H](F)C3)nn2)c1 [3-[6-({[3-fluoro-1-(3-fluoro(2-pyridyl))cyclobutyl]methyl}ami-no)pyridazin-3-yl]benzoic acid] was run?
Answer: The value was “A (A=<1 uM)”.

Question: Fc1cccnc1C1(Nc2ccc(-c3ccc4[nH]ncc4c3)nn2)CCC1 [(6-(1H-indazol-5-yl)pyridazin-3-yl)[(3-fluoro(2-pyridyl))cyclobutyl]amine] was tested. Which “Mean AC1.4” value did it give?
Answer: The value was “B (B=1-10 uM)”.

Question: For COc1cccc(C2(Nc3ccc(-c4cc(C(N)=O)ccc4F)nn3)CCC2)n1, which “Mean AC1.4” value is on record?
Answer: Its value is “A (A=<1 uM)”.

Question: Which “Mean AC1.4” value does the source give for NC(=O)CNC(=O)c1cnc(-c2ccc(NCC3(c4ncccc4F)CCC3)nn2)s1 [N-(carbamoylmethyl){2-[6-({[(3-fluoro(2-pyridyl))cyclobutyl]methyl}ami-no)pyridazin-3-yl](1,3-thiazol-5-yl)}carboxamide] here?
Answer: The value was “A (A=<1 uM)”.

Question: CC(C)n1[nH]c(=O)c2cc(-c3ccc(NCC4(c5ncccc5F)CCC4)nn3)ccc21 was tested. Which “Mean AC1.4” value did it give?
Answer: Its value is “C (C=10-20 uM)”.

Question: For Fc1cccnc1C1(CNc2ccc(-c3nn[nH]n3)nn2)CCC1 [(6-(2H-1,2,3,4-tetraazol-5-yl)pyridazin-3-yl){[(3-fluoro(2-pyridyl))cyclobutyl]methyl}amine], which “Mean AC1.4” value is on record?
Answer: The value was “D (D=>20 uM)”.

Question: How did the “Mean AC1.4” value turn out when NC(=O)c1cc(-c2ccc(NCC3(c4ncccc4F)CCC3)nn2)n[nH]1 was run?
Answer: The value was “B (B=1-10 uM)”.

Question: How did the “Mean AC1.4” value turn out when O=CN1CC(F)(F)C[C@H]1C(=O)NCc1cnc(-c2ccc(NCC3(c4ncccc4F)CCC3)nn2)s1 [((2S)-4,4-difluoro-1-formylpyrrolidin-2-yl)-N-({2-[6-({[(3-fluoro(2-pyridyl))cyclobutyl]methyl}ami-no)pyridazin-3-yl](1,3-thiazol-5-yl)}methyl)carboxamide] was run?
Answer: The value was “A (A=<1 uM)”.

Question: With CC(C)(Nc1ccc(-c2cccc(C(N)=O)c2)nn1)c1ccc(F)cc1 [3-(6-{[1-(4-fluorophenyl)-isopropyl]amino}pyridazin-3-yl)benzamide] as the molecule, how does the “Mean AC1.4” value read?
Answer: The value was “B (B=1-10 uM)”.

Question: NC(=O)c1cc(-c2ccc(NC3(c4ccc(F)cc4)CCC3)nn2)ccn1 was tested. Which “Mean AC1.4” value did it give?
Answer: Its value is “B (B=1-10 uM)”.

Question: For NC(=O)Cc1cnc(-c2ccc(NCC3(c4ncccc4F)CCC3)nn2)s1 [2-{2-[6-({[(3-fluoro-2-pyridyl)cyclobutyl]methyl}ami-no)pyridazin-3-yl]-1,3-thiazol-5-yl}acetamide], which “Mean AC1.4” value is on record?
Answer: The value was “B (B=1-10 uM)”.

Question: How did the “Mean AC1.4” value turn out when O=C(OCc1ccccc1)N1CC(c2ccc(NCC3(c4ncccc4F)CCC3)nn2)C1 was run?
Answer: The value was “D (D=>20 uM)”.

Question: How did the “Mean AC1.4” value turn out when COc1ccc2nc(-c3ccc(NCC4(c5ncccc5F)CCC4)nn3)sc2n1 [{[(3-fluoro(2-pyridyl))cyclobutyl]methyl}[6-(5-methoxy(1,3-thiazolino[5,4-b]pyridin-2-yl))pyridazin-3-yl]amine] was run?
Answer: The value was “D (D=>20 uM)”.

Question: For NC(=O)c1ncc(-c2ccc(NCC3(c4ncccc4F)CCC3)nn2)s1 [5-[6-({[(3-fluoro-2-pyridyl)cyclobutyl]methyl}ami-no)pyridazin-3-yl]-1,3-thiazole-2-carboxamide], which “Mean AC1.4” value is on record?
Answer: Its value is “B (B=1-10 uM)”.

same assay, conditions: median AC1.4 reported as class; procedure of Example 39

Question: Which “Mean AC1.4” value does the source give for O=C(O)c1cccc(-c2ccc(NC[C@]3(c4ncccc4F)C[C@H](F)C3)nn2)c1O [3-[6-({[3-fluoro-1-(3-fluoro(2-pyridyl))cyclobutyl]methyl}ami-no)pyridazin-3-yl]-2-hydroxybenzoic acid] here?
Answer: The value was “C (C=10-20 uM)”.

Question: With NC(=O)c1csc(NC(=O)c2ccc(NCC3(c4ncccc4F)CCC3)nn2)n1 [2-{[6-({[(3-fluoro-2-pyridyl)cyclobutyl]methyl}ami-no)pyridazin-3-yl]carbonylamino}-1,3-thiazole-4-carboxamide] as the molecule, how does the “Mean AC1.4” value read?
Answer: Its value is “A (A=<1 uM)”.

Question: How did the “Mean AC1.4” value turn out when O=C1NCc2cc(-c3ccc(NC[C@]4(c5ncccc5F)C[C@H](F)C4)nn3)ccc21 [5-[6-({[3-fluoro-1-(3-fluoro(2-pyridyl))cyclobutyl]methyl}ami-no)pyridazin-3-yl]isoindolin-1-one] was run?
Answer: Its value is “C (C=10-20 uM)”.

Question: For O=C(NCC1(O)CC1)c1cccc(-c2ccc(NC[C@]3(c4ncccc4F)C[C@H](F)C3)nn2)c1 [{3-[6-({[3-fluoro-1-(3-fluoro(2-pyridyl))cyclobutyl]methyl}ami-no)pyridazin-3-yl]phenyl}-N-[(hydroxycyclopropyl)methyl]car-boxamide], which “Mean AC1.4” value is on record?
Answer: The value was “A (A=<1 uM)”.

Question: How did the “Mean AC1.4” value turn out when Fc1cccnc1[C@]1(CNc2ccc(-c3ccc(NC4CC4)nc3)nn2)C[C@@H](F)C1 [{6-[6-(cyclopropylamino)(3-pyridyl)]pyridazin-3-yl}{[3-fluoro-1-(3-fluoro(2-pyridyl))cyclobutyl]methyl}amine] was run?
Answer: Its value is “D (D=>20 uM)”.

Question: For CN(Cc1nccs1)C(=O)c1ccc(NCC2(c3ncccc3F)CCC2)nn1 [[6-({[(3-fluoro(2-pyridyl))cyclobutyl]methyl}ami-no)pyridazin-3-yl]-N-methyl-N-(1,3-thiazol-2-ylmethyl)carboxamide], which “Mean AC1.4” value is on record?
Answer: The value was “D (D=>20 uM)”.

Question: How did the “Mean AC1.4” value turn out when CC1(O)CC(NC(=O)c2cccc(-c3ccc(NC[C@]4(c5ncccc5F)C[C@H](F)C4)nn3)c2)C1 (stereo partly drawn) [{3-[6-({[3-fluoro-1-(3-fluoro(2-pyridyl))cyclobutyl]methyl}ami-no)pyridazin-3-yl]phenyl}-N-(3-hydroxy-3-methylcyclobutyl)carboxamide] was run?
Answer: The value was “B (B=1-10 uM)”.

Question: How did the “Mean AC1.4” value turn out when NC(=O)c1ccc(O)c(-c2ccc(NCC3(c4ncccc4F)CCC3)nn2)c1 [3-[6-({[(3-fluoro(2-pyridyl))cyclobutyl]methyl}ami-no)pyridazin-3-yl]-4-hydroxybenzamide] was run?
Answer: The value was “B (B=1-10 uM)”.

Question: With NC(=O)N1CCc2nc(-c3ccc(NCC4(c5ncccc5F)CCC4)nn3)sc2C1 [2-[6-({[(3-fluoro-2-pyridyl)cyclobutyl]methyl}ami-no)pyridazin-3-yl]-4,5,6,7-tetrahydro-1,3-thiazolo[5,4-c]pyridine-5-carboxamide] as the molecule, how does the “Mean AC1.4” value read?
Answer: The value was “D (D=>20 uM)”.

Question: How did the “Mean AC1.4” value turn out when CC(C)(CNc1ccc(-c2ncc(CC(N)=O)s2)nn1)c1ncccc1Cl [2-[2-(6-{[2-(3-chloro(2-pyridyl))-2-methylpropyl]amino}pyridazin-3-yl)-1,3-thiazol-5-yl]acetamide] was run?
Answer: Its value is “B (B=1-10 uM)”.

Question: Which “Mean AC1.4” value does the source give for CNC(=O)c1cccc(-c2ccc(NC[C@]3(c4ncccc4F)C[C@H](F)C3)nn2)c1O [{3-[6-({[3-fluoro-1-(3-fluoro(2-pyridyl))cyclobutyl]methyl}ami-no)pyridazin-3-yl]-2-hydroxyphenyl}-N-methylcarboxamide] here?
Answer: Its value is “A (A=<1 uM)”.

Question: For O=C(NC1CCCNC1=O)c1ccc(NCC2(c3ncccc3F)CCC2)nn1 (stereo not drawn) [[6-({[(3-fluoro(2-pyridyl))cyclobutyl]methyl}ami-no)pyridazin-3-yl]-N-(2-oxo(3-piperidyl))carboxamide], which “Mean AC1.4” value is on record?
Answer: The value was “D (D=>20 uM)”.
